Assay: gradient 5% acetonitrile 3 min, to 50% in 2 min, to 85% in 15 min, held 3 min, 100 µL/min
Conditions: column: Zorbax Extend-C18 2.1 x 50 mm; eluents: water / acetonitrile, 0.1% formic acid
Outline: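 Over 3 months, pure standards in mixtures of ~100 molecules were run by HPLC coupled to a quadrupole time-of-flight mass spectrometer in positive and negative ionization mode. The column was a Zorbax Extend-C18 (2.1 × 50 mm, 1.8 μm) at 100 μL/min, eluted with water and acetonitrile each holding 0.1% formic acid, with 40 μL dead and 900 μL dwell volumes. Retention time was determined from adduct peaks chosen by software and checked manually.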

Row | SMILES | RP-LC retention time
1 | Cc1sc(NC(=O)C(F)(F)F)nc1-c1ccc2c(c1)NC(=O)C(C)O2 (configuration not stated) | 840 s
2 | COCC1(O)CCOC2(CCN(Cc3cc(C)ccc3C)CC2)C1 (configuration not stated) | 559 s
3 | CC(=O)c1ccc(N=NC(C(N)=O)C2NC(C)(C)Cc3ccccc32)cc1 (configuration not stated) | 794 s
4 | CCc1nc2ccc(-c3noc(-c4ccc(NC(C)=O)cc4)n3)cc2n1CC | 630 s
5 | CCOc1ccc(-c2noc(Cn3c(=O)n(C(C)C)c(=O)c4ccccc43)n2)cc1 | 1190 s
6 | COc1ccc2c(c1)CCc1sc(NC(=O)c3cccc(Cl)c3)nc1-2 | 1180 s
7 | CCN1CCN(CCCNC(=O)Cc2c(C(=O)O)c(C)cn2C)CC1 | 549 s
8 | O=C(Cn1cnc(-c2noc(-c3ccncc3)n2)c1)N1CCc2ccccc21 | 634 s
9 | O=C(Nc1nnc(SCc2nnc(-c3ccccc3)o2)s1)c1cccc(Cl)c1 | 977 s
10 | c1cc(-c2cnn3cc(-c4ccc(OCCN5CCCCC5)cc4)cnc23)ccn1 | 584 s
11 | O=C(Nc1cccc(-c2ccc(N3CCCCC3)nn2)c1)Nc1ccccc1F | 742 s
12 | COc1ccc(OC)c(C(O)CN2CCN(c3ccc(C)cc3)CC2)c1 (configuration not stated) | 653 s
13 | CCOC(=O)c1[nH]c(C)c(CCC(=O)N2CCCC(C(=O)NC3CCCC3)C2)c1C (configuration not stated) | 746 s
14 | O=C(Cn1c(=O)c(CCC(=O)NC2CC2)nc2ccccc21)NCc1ccccc1 | 693 s
15 | O=C(NCC1(c2ccccc2)CCOCC1)C(=O)Nc1cc2c3c(c1)CCC(=O)N3CCC2 | 762 s
16 | COC(=O)c1ccc(CSc2nnc(NC(=O)c3cc(C)on3)s2)o1 | 737 s
17 | COc1ccccc1CNC(=O)C(=O)NCc1ccsc1 | 796 s
18 | COc1ccccc1Nc1c(-c2cccc(O)c2)nc2cnccn12 | 681 s
19 | COc1ccc(C(C)NC(=O)C2c3ccccc3CCN2C(=O)C2CC2)cc1OC (configuration not stated) | 802 s
20 | CCCn1cc(C(=O)Nc2ccccc2CC)c2cccnc21 | 919 s
21 | CCOc1cc(=O)n2c(c1C(=O)NCCCN1CCCc3ccccc31)CCCCC2 | 733 s
22 | Cn1cccc1C(=O)N1CCC(OCc2nc(C3CC3)no2)CC1 | 799 s
23 | CC1CCCCN1CCNC(=O)C1CC(=O)N(c2ccc3c(c2)CCN3C(=O)C2CC2)C1 (configuration not stated) | 578 s
24 | N#Cc1cccc(C(=O)NC2CCCC(OC(=O)Nc3ccccc3)C2)c1 (configuration not stated) | 819 s

The remaining lines, values ahead:

Row | RP-LC retention time | SMILES
25 | 1020 s | Cc1ccc(S(=O)(=O)N2CCc3c(c(-c4nnc(-c5ccccc5)o4)nn3C)C2)cc1C
26 | 784 s | CCN(CC)C(=O)N1CC(Oc2ccccc2-c2nc(-c3cnccn3)no2)C1
27 | 925 s | COc1cccc(-c2noc(C3CCCN3C(=O)Nc3cccc(C)c3C)n2)c1 (configuration not stated)
28 | 858 s | CCNC(=O)c1cn(-c2ccc(-c3nc(C(C)(C)C)no3)cn2)cn1
29 | 643 s | O=C(NCCc1c[nH]c2ccc(Cl)cc12)C1CCN(c2ccncc2)CC1
30 | 585 s | O=C(NC1CCCCC1)N1CCN(CCn2c(-c3ccncc3)nc3cccnc32)CC1
31 | 766 s | CC(=O)N(Cc1nn(C)c2c1CN(S(=O)(=O)c1ccccc1)CC2)c1ccccc1
32 | 587 s | COc1cccc(S(=O)(=O)N2CCC(n3c(C)cnc3C3CC3)C2)c1 (configuration not stated)
33 | 808 s | Cc1cc(C2CCCN2C(=O)Nc2ccc(F)c(Cl)c2)no1 (configuration not stated)
34 | 618 s | Cc1ccc(F)cc1S(=O)(=O)N[C@@H]1CN(c2ncccn2)C[C@H]1CN(C)C
35 | 593 s | Cn1cc(CCNC(=O)NCc2ccco2)c2cccnc21
36 | 786 s | O=C(Cn1nc2c(N3CCCCCC3)nccn2c1=O)Nc1ccc(F)c(Cl)c1
37 | 902 s | COc1ccccc1CC(=O)N1CCCC1c1cc(C(C)C)on1 (configuration not stated)

Source: the METLIN SMRT retention time set (Domingo-Almenara et al. 2019)
